How the values were obtained:
[1] = tested on: Salmonella typhimurium Strain TA98; experiment: Ames test for mutagenity (OECD 471); format: cell-based
Text: Due to the availability of different grades of Solvent Orange 63 for the corrosion tests, we decided to submit them all to an Ames test, one of several genotoxicity assays for the assessment of product safety.
The Ames test is a screening for the mutagenic effect of substances on microorganisms, cells and tissue cultures and therefore their potential carcinogenic effect. This relies on the observation that the most common cause of cancer is somatic mutations brought about by DNA damage. Chemicals that damage bacterial DNA, and induce mutations, are therefore likely to cause mutations in mammalian cells. Assay is done using bacteria, which gives fast and relatively cheap results and avoids the controversial tests on animals.
The strains used are among those recommended by OECD 471: Salmonella typhimurium and Escherichia coli.
Solvent Orange 63 as prepared above was subjected to Ames test for mutagenity. The strains used are among those recommended by OECD 471: Salmonella typhimurium and E. coli.

[2] = LLNA test for skin sensitization (OECD Guideline 429); format: in vivo; details: OECD Guideline 429, suitable vehicle, for example acetone:olive oil (4+1)
Text: We further submitted the same samples to a LLNA screening, in order to assess the potential skin sensitization properties of the product.
The Local Lymph Node Assay (LLNA) is an alternative to the guinea pig sensitization test which is employed by the pharmaceutical, chemical, consumer product and cosmetic industries to identify and characterize substances with immunotoxic properties.
Solvent Orange 63 as prepared above was subjected to LLNA test for skin sensitization, according to OECD Guideline 429 in suitable vehicle, for example acetone:olive oil (4+1).

[3] = in the presence of S9 mix (metabolic activation)

O=c1c2ccccc2c2ccc3sc4ccccc4c4ccc1c2c34 [Solvent Orange 63 from Sample A, C.I. Solvent Orange 63]
mutagenic to Salmonella typhimurium Strain TA98 [1, 3]: not mutagenic
skin sensitization (LLNA) [2]: not skin sensitizers

O=c1c2ccccc2c2ccc3sc4ccccc4c4ccc1c2c34 [Solvent Orange 63 from Sample B, C.I. Solvent Orange 63]
mutagenic to Salmonella typhimurium Strain TA98 [1, 3]: not mutagenic
skin sensitization (LLNA) [2]: not skin sensitizers

O=c1c2ccccc2c2ccc3sc4ccccc4c4ccc1c2c34 [Solvent Orange 63 from Sample C, C.I. Solvent Orange 63]
mutagenic to Salmonella typhimurium Strain TA98 [1, 3]: not mutagenic
skin sensitization (LLNA) [2]: skin sensitizers

O=c1c2ccccc2c2ccc3sc4ccccc4c4ccc1c2c34 [Solvent Orange 63 from Sample D, C.I. Solvent Orange 63]
mutagenic to Salmonella typhimurium Strain TA98 ([1]; with or without liver microsomal activation (S9 mix)): mutagenic
skin sensitization (LLNA) [2]: skin sensitizers
